Experimental data from ChEMBL document CHEMBL5724558, “Image-based profiling of drug vulnerabilities in CRC organoids” (2024).
Values joined by “and” are separate entries in the source; they are usually repeats but may differ in a detail not shown here. Equal entries are not always repeated.

Assays:
Type in all cases: functional, Homo sapiens
Parameters in all cases: dose or concentration left out as unconfirmed
Colon cancer organoid [1] = test: Image-based profiling of donated chemical probes and chemogenomic kinase set in O06 CRC organoid. Image analysis is performed on the sum area metric, and the data were normalized to the DMSO control. After imaging the organoid viability is measured using the OneGloEX Luciferase Assay System. The normalized viability data and sum area are reported.
Colon cancer organoid [2] = test: Image-based profiling of donated chemical probes and chemogenomic kinase set in O09 CRC organoid. Image analysis is performed on the sum area metric, and the data were normalized to the DMSO control. After imaging the organoid viability is measured using the OneGloEX Luciferase Assay System. The normalized viability data and sum area are reported.
Colon cancer organoid [3] = test: Image-based profiling of donated chemical probes and chemogenomic kinase set in O21 CRC organoid. Image analysis is performed on the sum area metric, and the data were normalized to the DMSO control. After imaging the organoid viability is measured using the OneGloEX Luciferase Assay System. The normalized viability data and sum area are reported.

Row | Compound | Cell Viability (Colon cancer organoid [1]; Replication number 1) | Cell Viability (Colon cancer organoid [1]; Replication number 2) | Cell Viability (Colon cancer organoid [2]; Replication number 1) | Cell Viability (Colon cancer organoid [2]; Replication number 2) | Cell Viability (Colon cancer organoid [3]; Replication number 1) | Cell Viability (Colon cancer organoid [3]; Replication number 2)
1 | Cc1c(N2CCCC2)nc2ccc(Br)cc2c1C(=O)NC[C@H](CCC(=O)O)c1ccccc1Cl [BAY-6672] | 80.703% and 111.012% | 84.0903% and 90.3412% | 62.7098% and 89.8462% | 112.488% and 108.842% | 101.261% and 132.048% | 101.473% and 100.952%
2 | O=C1NC(c2ccccn2)Sc2ccccc21 (stereo not given) [BTZO-4] | 80.1051% and 90.1639% | 101.963% and 109.92% | 89.6903% and 76.6923% | 179.626% and 125.593% | 96.9189% and 94.3079% | 102.382% and 84.6939%
3 | COc1ccc2c(c1)O[C@H](c1ccc(OC)c(OC)c1)C[C@@H]2NC(=O)C1(c2ccc3c(c2)OC(F)(F)O3)CC1 [A-1596584] | 59.7741% and 88.9069% | 99.5304% and 111.725% | 121.374% and 104.664% | 90.4474% and 94.7661% | 106.5% and 117.861% | 103.505% and 102.481%
4 | CCOc1cc(N2CCC(O)CC2)ccc1Nc1ncc2c(n1)N(C)c1ccccc1C(=O)N2C | 105.657% and 158.464% | 54.5485% and 108.792% | 50.6693% and 60.5891% | 44.9186% and 56.4198% | 109.771% and 116.516% | 106.608% and 109.968%
5 | COc1cc(-c2cn(C)c(=O)c3cnccc23)c(OC)cc1CN(C)C | 102.497% and 103.651% | 129.558% and 87.7058% | 64.3431% and 76.9706% | 65.7343% and 74.6912% | 113.788% and 114.043% | 122.408% and 119.749%
6 | CCN(CC)S(=O)(=O)Nc1cccc(-c2ccc3c(NC(=O)C4CC4)n[nH]c3c2)c1 | 115.301% and 130.405% | 90.7141% and 75.8621% | 118.731% and 102.205% | 162.059% and 116.31% | 106.348% and 90.1082% | 91.5896% and 92.3751%
7 | CC1=C(C#N)C(c2ccc3[nH]nc(C)c3c2)C(C#N)=C(C)N1 [BAY-474] | 114.031% and 109.602% | 118.528% and 111.578% | 97.0801% and 99.3894% | 77.9563% and 84.1183% | 98.4176% and 90.2329% | 78.5633% and 94.3878%
8 | CN1C[C@H](Nc2cnn(C)c(=O)c2Br)C[C@H](c2ccccc2)C1 | 155.67% and 115.973% | 127.596% and 115.428% | 140.201% and 85.3168% | 101.083% and 86.6646% | 130.754% and 116.395% | 102.417% and 96.6587%
9 | CCC(=O)N1CCN(c2ccc(-n3c(=O)ccc4cnc5ccc(-c6cnc7ccccc7c6)cc5c43)cc2C(F)(F)F)CC1 [TORIN1] | 3.399% and 11.5065% |  | 18.1039% and 19.199% | 16.4682% and 14.0105% | 35.688% and 65.784% | 42.752% and 81.756%
10 | CC(C)(O)CNc1ncc(-c2ccnc(Nc3ccnc(Cl)c3)n2)c(CC2CC2)n1 | 43.9028% and 71.665% | 60.8585% and 108.175% | 50.3707% and 42.8861% | 72.1392% and 56.6897% | 40.3035% and 73.5889% | 46.8315% and 88.665%
11 | C[C@H]1CC(=O)Nc2cc(C(=O)NCCC3CC3)ccc2N1C(=O)N1CC2CC2C1 (stereo not given in full) | 181.689% and 143.275% | 157.26% and 132.873% | 82.587% and 82.5348% | 120.178% and 115.743% | 104.914% and 116.982% | 77.8753% and 111.158%
12 | COc1cc(C(=O)O)ncc1C#Cc1ccccc1NS(=O)(=O)c1cccc2c(N(C)C)ccnc12 [MSC-0516] | 100.098% and 102.024% | 96.9075% and 85.7761% | 106.133% and 95.2857% | 130.736% and 112.411% | 88.3697% and 90.0327% | 92.8274% and 92.794%
13 | CO[C@H]1CNC[C@@H](OCC2CCC(F)(F)CC2)[C@@H]1Nc1ncc(-c2cncc(C)c2)c2cc(C)c(=O)[nH]c12 | 159.604% and 115.973% | 145.077% and 98.9379% | 183.516% and 118.934% | 127.49% and 119.734% | 117.954% and 107.577% | 97.9494% and 89.6778%
14 | CC(C)Oc1ccc(-c2nn([C@@H](C)c3oc4ccc(F)cc4c(=O)c3-c3cccc(F)c3)c3ncnc(N)c23)cc1F [UMBRALISIB] | 88.4125% and 133.76% | 91.2943% and 112.494% | 196.172% and 129.157% | 74.9501% and 109.33% | 111.232% and 144.39% | 124.887% and 154.3%
15 | C[C@H](c1ccc(F)cc1)N(Cc1ccc(Cl)c(C(=O)O)c1)C(=O)c1cnc2ccccc2c1 [PF-05257137] | 112.636% and 114.286% | 58.4583% and 44.0628% | 171.765% and 153.146% | 140.713% and 101.643% | 104.015% and 83.2471% | 99.7446% and 91.3265%
16 | CN1CCN(c2ccnc(NCCc3ccccc3)n2)CC1 [TP-040n] | 105.696% and 108.533% | 89.6424% and 87.2137% | 119.963% and 93.2958% | 137.241% and 93.2958% | 124.161% and 101.443% | 125.774% and 83.8743%
17 | N#CC1(c2ccccn2)CCN(Cc2cc(C(=O)N3CCCC3)c(=O)n3ccccc23)CC1 [MSD-M1PAM-NC] | 114.688% and 98.8664% | 108.691% and 97.5493% | 69.2847% and 91.5343% | 101.66% and 96.3521% | 100.616% and 90.5784% | 99.0735% and 86.6757%
18 | CO[C@@H](C)c1c(Nc2ccc([C@H](N(C)C(=O)C3CCS(=O)(=O)CC3)C(F)(F)F)cc2)cnc2cc(Cl)nn12 [NVS-MALT1] | 53.942% and 90.6073% | 65.826% and 102.355% | 78.0421% and 97.349% | 96.1339% and 95.7573% | 116.026% and 99.8545% | 97.0711% and 89.225%
19 | O=C(c1ccc(C(=O)N2CCC(N3CCCC3)CC2)c(Nc2ccccc2)c1)N1CCC(N2CCCC2)CC1 | 185.477% and 131.195% | 168.44% and 129.527% | 81.7706% and 92.0402% | 143.807% and 112.037% | 116.035% and 118.746% | 94.3605% and 99.3437%
20 | C=CC(=O)Nc1ccc2[nH]c(=O)n(C3CCN(Cc4ccc(-c5ccc6c(c5)NC(=O)CO6)cc4)CC3)c2c1 [RL2578] | 82.8871% and 90.6073% | 145.126% and 114.128% | 79.7893% and 107.853% | 131.51% and 111.42% | 100.847% and 118.952% | 88.0648% and 119.816%
21 | O=C(Nc1cccnn1)N1CC(C/C=C/c2cncc(Oc3ccc(C(F)(F)F)cn3)n2)C1 | 109.538% and 100.234% | 99.7432% and 110.394% | 144.17% and 108.229% | 154.84% and 92.5885% | 91.4572% and 89.6507% | 96.356% and 80.102%
